# PubChem BioAssay AID264 (DTP/NCI, 2004)
# “And” between values parts separate entries of the source, which are not always exact repeats. Identical values can stand only once. Records with an inconclusive call do not appear.
# System: nude mice, LX-1 lung xenograft intrarenal, tumor weight T/C
# Assay: NCI In Vivo Anticancer Drug Screen. Data for tumor model Human Lung LX-1 Xenograft (intrarenal inoculation) in NU/NU Swiss (nude) mice
# Settings: endpoint: mean tumor weight change, higher = larger tumour
# Outline: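 Readout: T/C, i.e. treated-group tumor measurement over vehicle-control measurement. Mice bearing transplantable tumors were dosed with compound or vehicle.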
# [1] = dose: 150.0 mg/kg/injection, schedule: Q04DX003 (sc), vehicle: saline with Tween-80
# [2] = dose: 12.5 mg/kg/injection, schedule: Q04DX003 (sc), vehicle: saline with Tween-80
# [3] = dose: 25.0 mg/kg/injection, schedule: Q04DX003 (sc), vehicle: saline with Tween-80
# [4] = dose: 50.0 mg/kg/injection, schedule: Q04DX003 (sc), vehicle: saline with Tween-80
# [5] = dose: 400.0 mg/kg/injection, schedule: Q01DX010 (sc), vehicle: Klucel (hydroxypropylcellulose) (HPC)
# [6] = dose: 300.0 mg/kg/injection, schedule: Q04DX003 (sc), vehicle: saline with Tween-80
# [7] = dose: 600.0 mg/kg/injection, schedule: Q04DX003 (sc), vehicle: saline with Tween-80
# [8] = dose: 1200.0 mg/kg/injection, schedule: Q04DX003 (sc), vehicle: saline with Tween-80
# [9] = dose: 37.5 mg/kg/injection, schedule: Q04DX003 (sc), vehicle: saline with Tween-80
# [10] = dose: 75.0 mg/kg/injection, schedule: Q04DX003 (sc), vehicle: saline with Tween-80
compound,measurement,setting,value
O=C(O)C1CSCN1 (centres undefined),T/C,"dose: 50.0 mg/kg/injection, schedule: Q01DX010 (sc), vehicle: water",86 % of control
same,T/C,"dose: 100.0 mg/kg/injection, schedule: Q01DX010 (sc), vehicle: water",68 % of control
CN1CCN(c2ccc([N+](=O)[O-])c3no[n+]([O-])c23)CC1,T/C,[1],73 % of control
COc1cccc2c1C(=O)c1c(O)c3c(c(O)c1C2=O)C[C@@](O)(/C(C)=N/NC(=O)c1cccc([N+](=O)[O-])c1)C[C@@H]3OC1CC(N)C(O)C(C)O1 (some centres undefined),T/C,"dose: 8.0 mg/kg/injection, schedule: Q01DX010 (sc), vehicle: water",68 % of control
same,T/C,"dose: 16.0 mg/kg/injection, schedule: Q01DX010 (sc), vehicle: water",78 % of control
same,T/C,"dose: 24.0 mg/kg/injection, schedule: Q04DX003 (sc), vehicle: water",54 % of control
same,T/C,"dose: 48.0 mg/kg/injection, schedule: Q04DX003 (sc), vehicle: water",9 % of control
same,T/C,"dose: 96.0 mg/kg/injection, schedule: Q04DX003 (sc), vehicle: water",25 % of control
Cc1[nH]c(=O)[nH]c(=O)c1N(CCF)CCCl,T/C,"dose: 40.0 mg/kg/injection, schedule: Q01DX010 (sc), vehicle: Klucel (hydroxypropylcellulose) (HPC)",19 % of control and 34 % of control and 36 % of control
C[n+]1cccc(NC(=O)c2ccc(NC(=O)C34CCC(C(=O)Nc5ccc(C(=O)Nc6ccc[n+](C)c6)cc5)(CC3)CC4)cc2)c1,T/C,[2],103 % of control
same,T/C,[3],76 % of control
same,T/C,[4],53 % of control
C=C(NC(=O)C(=C)NC(=O)c1csc(C2=NC3c4csc(n4)C4NC(=O)c5csc(n5)C(C(C)(O)C(C)O)NC(=O)C5CSC(=N5)/C(=C/C)NC(=O)C(C(C)O)NC(=O)c5csc(n5)C3(CC2)NC(=O)C(C)NC(=O)C(=C)NC(=O)C(C)NC(=O)C(C(C)CC)NC2C=Cc3c(C(C)O)cc(nc3C2O)C(=O)OC4C)n1)C(N)=O (centres undefined),T/C,"dose: 200.0 mg/kg/injection, schedule: Q01DX010 (sc), vehicle: Klucel (hydroxypropylcellulose) (HPC)",90 % of control
same,T/C,[5],65 % of control
same,T/C,"dose: 1600.0 mg/kg/injection, schedule: Q01DX010 (sc), vehicle: Klucel (hydroxypropylcellulose) (HPC)",53 % of control
C[C@H]1C[C@@H]2[C@H]([C@@H](O)C[C@@]3(C)[C@H]2CC[C@]3(O)C(=O)CO)[C@@]2(C)C=CC(=O)C=C12,T/C,"dose: 200.0 mg/kg/injection, schedule: Q04DX003 (sc), vehicle: Klucel (hydroxypropylcellulose) (HPC)",76 % of control
same,T/C,"dose: 400.0 mg/kg/injection, schedule: Q04DX003 (sc), vehicle: Klucel (hydroxypropylcellulose) (HPC)",58 % of control
same,T/C,"dose: 800.0 mg/kg/injection, schedule: Q04DX003 (sc), vehicle: Klucel (hydroxypropylcellulose) (HPC)",59 % of control
N=[N+]=CC(=O)OCC(N)C(=O)O (centres undefined),T/C,"dose: 12.5 mg/kg/injection, schedule: Q01DX010 (sc), vehicle: saline",101 % of control
COC1(OC)C2C=CC1CC2,T/C,[6],105 % of control
same,T/C,[7],150 % of control
same,T/C,[8],104 % of control
CC1C=NNC1=O (centres undefined),T/C,"dose: 100.0 mg/kg/injection, schedule: Q01DX010 (sc), vehicle: saline with Tween-80",97 % of control
same,T/C,"dose: 200.0 mg/kg/injection, schedule: Q01DX010 (sc), vehicle: saline with Tween-80",270 % of control
same,T/C,"dose: 400.0 mg/kg/injection, schedule: Q01DX010 (sc), vehicle: saline with Tween-80",82 % of control
CNC(=O)n1c(N)nc(-c2ccccc2)c1-c1ccccc1,T/C,[9],114 % of control
same,T/C,[10],122 % of control
same,T/C,[1],57 % of control
CC(=O)[O][Pb]([O]C(C)=O)([c]1ccccc1)[c]1ccccc1,T/C,[5],40 % of control
O=c1s[se]c2ccccc12,T/C,"dose: 75.0 mg/kg/injection, schedule: Q04DX003 (sc), vehicle: Klucel (hydroxypropylcellulose) (HPC)",66 % of control
same,T/C,"dose: 150.0 mg/kg/injection, schedule: Q04DX003 (sc), vehicle: Klucel (hydroxypropylcellulose) (HPC)",59 % of control
CC(=O)c1c(O)c(C)c(O)c2c1OC1=CC(=O)C(C(C)=O)C(=O)C12C (centres undefined),T/C,"dose: 25.0 mg/kg/injection, schedule: Q01DX010 (sc), vehicle: sodium bicarbonate",207 % of control
same,T/C,"dose: 50.0 mg/kg/injection, schedule: Q01DX010 (sc), vehicle: sodium bicarbonate",102 % of control
same,T/C,"dose: 200.0 mg/kg/injection, schedule: Q01DX010 (sc), vehicle: sodium bicarbonate",82 % of control and 104 % of control
COc1ccc2c(NCCCCCCCCNc3c4ccccc4nc4cc(OC)ccc34)c3ccccc3nc2c1,T/C,"dose: 2.0 mg/kg/injection, schedule: Q04DX003 (sc), vehicle: suspension in saline",96 % of control
same,T/C,"dose: 16.0 mg/kg/injection, schedule: Q04DX003 (sc), vehicle: suspension in saline",64 % of control
C/C=C/c1cc2c(c(=O)o1)C(=O)[C@@H](O)[C@H](C)O2,T/C,[3],92 % of control
same,T/C,[4],95 % of control
same,T/C,"dose: 100.0 mg/kg/injection, schedule: Q04DX003 (sc), vehicle: saline with Tween-80",75 % of control and 97 % of control
same,T/C,"dose: 200.0 mg/kg/injection, schedule: Q04DX003 (sc), vehicle: saline with Tween-80",82 % of control and 87 % of control
O=C(O)c1ccc(C(=O)O)c(C(=O)O)c1.[NH-]C1CCCCC1[NH-].[Pt+2],T/C,"dose: 3.12 mg/kg/injection, schedule: Q01DX010 (sc), vehicle: sodium bicarbonate",101 % of control
same,T/C,"dose: 6.25 mg/kg/injection, schedule: Q01DX010 (sc), vehicle: sodium bicarbonate",74 % of control
CCN1C=C/C(=C\C=C/c2cc[n+](CC)c3ccccc23)c2ccccc21,T/C,"dose: 0.25 mg/kg/injection, schedule: Q01DX010 (sc), vehicle: saline",195 % of control
C[C@]12CCC(=O)C=C1CC[C@@H]1[C@@H]2[C@@H](O)C[C@@]2(C)[C@H]1CC[C@]2(O)C(=O)CO,T/C,"dose: 300.0 mg/kg/injection, schedule: Q04DX003 (sc), vehicle: Klucel (hydroxypropylcellulose) (HPC)",40 % of control
O=C(NO)c1ccc(O)c(O)c1,T/C,"dose: 200.0 mg/kg/injection, schedule: Q04DX003 (sc), vehicle: distilled water + Tween-80",103 % of control
same,T/C,"dose: 400.0 mg/kg/injection, schedule: Q04DX003 (sc), vehicle: distilled water + Tween-80",74 % of control
same,T/C,"dose: 800.0 mg/kg/injection, schedule: Q04DX003 (sc), vehicle: distilled water + Tween-80",78 % of control
CC1(C)OC1CS(=O)c1ccccc1 (centres undefined),T/C,[7],121 % of control
same,T/C,[8],89 % of control
COc1ccc(C(=O)C(CN(C)C)CN(C)C)cc1,T/C,"dose: 12.5 mg/kg/injection, schedule: Q04DX003 (sc), vehicle: saline",68 % of control
same,T/C,"dose: 25.0 mg/kg/injection, schedule: Q04DX003 (sc), vehicle: saline",113 % of control
same,T/C,"dose: 50.0 mg/kg/injection, schedule: Q04DX003 (sc), vehicle: saline",64 % of control
CCCCCC#CC1OC12CCCCC2 (centres undefined),T/C,[6],97 % of control
same,T/C,[7],93 % of control
same,T/C,[8],60 % of control
same,T/C,"dose: 2400.0 mg/kg/injection, schedule: Q04DX003 (sc), vehicle: saline with Tween-80",79 % of control
CCOC(=O)Nc1cc2c(c(N)n1)N=C(c1ccccc1)CN2,T/C,"dose: 3.12 mg/kg/injection, schedule: Q04DX003 (sc), vehicle: saline with Tween-80",68 % of control
same,T/C,"dose: 6.25 mg/kg/injection, schedule: Q04DX003 (sc), vehicle: saline with Tween-80",82 % of control and 96 % of control
same,T/C,[2],73 % of control
same,T/C,[3],30 % of control and 54 % of control
C[n+]1c(/C=N/NC(N)=S)ccc2ccccc21,T/C,[6],93 % of control
same,T/C,[7],101 % of control
same,T/C,[8],102 % of control
COc1cccc2c1C(=O)c1c(O)c3c(c(O)c1C2=O)CC(O)(/C(C)=N/NC(=O)CCC(=O)N/N=C(\C)C1(O)Cc2c(O)c4c(c(O)c2C(OC2CC(N)C(O)C(C)O2)C1)C(=O)c1c(OC)cccc1C4=O)CC3OC1CC(N)C(O)C(C)O1 (centres undefined),T/C,"dose: 6.25 mg/kg/injection, schedule: Q01DX010 (sc), vehicle: water",21 % of control (2×) and 27 % of control
same,T/C,"dose: 12.5 mg/kg/injection, schedule: Q01DX010 (sc), vehicle: water",31 % of control and 46 % of control and 51 % of control
C[n+]1c2cc(N)ccc2cc2ccc(N)cc21,T/C,"dose: 6.25 mg/kg/injection, schedule: Q01DX010 (sc), vehicle: saline",72 % of control
O=C[C@@H](CO)O[C@H](C=O)n1cnc2c(=O)[nH]cnc21,T/C,"dose: 100.0 mg/kg/injection, schedule: Q04DX003 (sc), vehicle: suspension in saline",71 % of control
same,T/C,"dose: 200.0 mg/kg/injection, schedule: Q04DX003 (sc), vehicle: suspension in saline",57 % of control
same,T/C,"dose: 400.0 mg/kg/injection, schedule: Q04DX003 (sc), vehicle: suspension in saline",59 % of control
same,T/C,"dose: 800.0 mg/kg/injection, schedule: Q04DX003 (sc), vehicle: suspension in saline",54 % of control
CCc1nc(N)nc(N)c1-c1ccc(Cl)c([N+](=O)[O-])c1,T/C,"dose: 9.38 mg/kg/injection, schedule: Q04DX003 (sc), vehicle: saline with Tween-80",99 % of control
same,T/C,"dose: 18.75 mg/kg/injection, schedule: Q04DX003 (sc), vehicle: saline with Tween-80",108 % of control
same,T/C,[9],99 % of control
same,T/C,[10],119 % of control
